{
  "source": "the NIST ThermoML archive (doi:10.1021/acs.jced.7b00505)",
  "key": {"[1]": {"conditions": "298.15 K, Liquid; for viscosity: Capillary tube (Ostwald / Ubbelohde) method"}, "[2]": {"conditions": "298.15 K; 101.7 kPa; Liquid mixture 1; Pendant drop shape"}},
  "note": "Numbers after ± are expanded uncertainties.",
  "data": [
    {"smiles": "O", "note": "[water]", "values": [
      {"measurement": "viscosity", "setting": "[1]; 101.7 kPa", "result": "0.8958 ± 0.041", "unit": "mPa·s"}
    ]},
    {"smiles": "Cc1ccccc1", "note": "[toluene] + O", "values": [
      {"measurement": "interfacial tension", "setting": "[2]", "result": "36.2 ± 3.6", "unit": "mN/m"}
    ]},
    {"smiles": "Cc1ccccc1", "note": "[toluene]", "values": [
      {"measurement": "viscosity", "setting": "[1]; 101 kPa", "result": "0.554 ± 0.04", "unit": "mPa·s"},
      {"measurement": "mass density", "setting": "[1]; 101.7 kPa, Vibrating tube method", "result": "860.8 ± 2", "unit": "kg/m3"}
    ]}
  ]
}
